Test results as given in patent US12565490B2, “Inhibitors of Receptor Interacting Protein Kinase I for the treatment of disease” (Board of Regents, The University of Texas System, priority 2020, dated 2026).

Each compound was assayed on human monocytic cell line U937 (assay: Human U937 cellular necroptosis assay). Conditions: U-937; U937 cells stimulated with 25 ng/mL human TNFalpha and 25 μM z-VAD-FMK; 22 hr; viability by Cell Titer-Glo 2.0; read-out: hU937 IC50.
Format: cell-based
Protocol: Human U937 Cellular Necroptosis Assay
The human monocytic cell line U937 (CRL-1593.2) may be purchased from ATCC. The cells are routinely maintained in RPMI-1640 Medium (Gibco, Catalog #11875-093) supplemented with 10% heat inactivated fetal bovine serum (Gibco, Catalog #16140-071), 100 units/mL penicillin and 100 μg/mL streptomycin (Gibco, Catalog #15140-122), in a humidified incubator (37° C., 5% CO2). For the assay, cells are resuspended in RPMI-1640 phenol red free Media (Gibco, Catalog #11835-030) supplemented with 10% fetal bovine serum (Sigma, Catalog #F2442), 100 units/mL penicillin and 100 ug/mL streptomycin. Cells are stimulated with 25 ng/mL human TNFalpha (Cell Sciences, Catalog #CSI15659B) and 25 μM z-VAD-FMK (R&D Systems, Catalog #FMK001) followed by seeding 5000 cells per well in a volume of 40 μL to a white, CulturPlate-384 (Perkin Elmer, Catalog #6007680). Stock solutions of the test compounds are prepared in 100% DMSO (Sigma, Catalog #D2650) and serially diluted 1:3 using 100% DMSO. Compounds are additionally diluted 1:40 in assay medium, and 10 μL/well was transferred to the plate. Following the compound addition, the plate is incubated at 37° C. and 5% CO2 for 22 hr. After 22 hr, viability is assessed with the addition of 20 μL of Cell Titer-Glo 2.0 (Promega, Catalog #G9243). The tissue culture plate is shaken on an orbital shaker at 300 RPM for 15 minutes at room temperature in the dark. Luminescence is measured using a PerkinElmer Envision™ plate reader. IC50 values are calculated using a four-parameter logistic curve fit using Genedata Screener software. Compounds disclosed herein are expected to have activity in this assay.
Work on `CN1C(=O)[C@@H](NC(=O)c2ncc(Cl)c(-c3cnccn3)n2)COc2cc(Cl)cnc21` [Example 112, (S)-5-chloro-N-(8-chloro-5-methyl-4-oxo-2,3,4,5-tetrahydropyrido[3,2-b]-[1,4]oxazepin-3-yl)-4-(pyrazin-2-yl)pyrimidine-2-carboxamide] yielded an IC50 of 92.9 nM. `CN1C(=O)[C@@H](NC(=O)c2ncc(Cl)c(-c3ccc(F)cc3F)n2)COc2cc(F)cnc21` [Example 73, (S)-5-chloro-4-(2,4-difluorophenyl)-N-(8-fluoro-5-methyl-4-oxo-2,3,4,5-tetrahydropyrido[3,2-b]-[1,4]oxazepin-3-yl)pyrimidine-2-carboxamide] gave an IC50 of 11.4 nM. `CN1C(=O)[C@@H](NC(=O)c2ncc(Cl)c(-c3cccc(F)c3F)n2)COc2cc(F)cnc21` [Example 72, (S)-5-chloro-4-(2,3-difluorophenyl)-N-(8-fluoro-5-methyl-4-oxo-2,3,4,5-tetrahydropyrido[3,2-b]-[1,4]oxazepin-3-yl)pyrimidine-2-carboxamide] was tested, and the IC50 was 25.5 nM. Compound `Cc1cnc(C(=O)N[C@H]2COc3cc(C#N)ccc3N(C)C2=O)nc1N1CC2CCC1C2` (stereo partly drawn) [Example 44, 4-(2-azabicyclo[2.2.1]heptan-2-yl)-N-((S)-8-cyano-5-methyl-4-oxo-2,3,4,5-tetrahydro-benzo[b][1,4]oxazepin-3-yl)-5-methylpyrimidine-2-carboxamide] has an IC50 of 789 nM. In the case of `Cc1cnc(C(=O)N[C@H]2COc3cc(C#N)ccc3N(C)C2=O)nc1N1CCCC1` [Example 20, (S)-N-(8-cyano-5-methyl-4-oxo-2,3,4,5-tetrahydro-benzo[b][1,4]oxazepin-3-yl)-5-methyl-4-(pyrrolidin-1-yl)-pyrimidine-2-carboxamide], the IC50 is reported as 482 nM. Work on `CN1C(=O)[C@@H](NC(=O)c2ncc(Cl)c(-c3ccc(C#N)cc3)n2)COc2cc(Cl)cnc21` [Example 105, (S)-5-chloro-N-(8-chloro-5-methyl-4-oxo-2,3,4,5-tetrahydropyrido[3,2-b]-[1,4]oxazepin-3-yl)-4-(4-cyanophenyl)pyrimidine-2-carboxamide] yielded an IC50 of 19.6 nM. In the case of `Cc1ccc(C(=O)N[C@H]2COc3cc(C#N)ccc3N(C)C2=O)nc1Br` [Example 33, (S)-6-bromo-N-(8-cyano-5-methyl-4-oxo-2,3,4,5-tetrahydro-benzo[b][1,4]oxazepin-3-yl)-5-methylpicolinamide], the IC50 is reported as at least 10000 nM. With `CN1C(=O)[C@@H](NC(=O)c2ncc(Cl)c(-c3cccc(F)c3F)n2)COc2cc(Cl)cnc21` [Example 95, (S)-5-chloro-N-(8-chloro-5-methyl-4-oxo-2,3,4,5-tetrahydropyrido[3,2-b]-[1,4]oxazepin-3-yl)-4-(2,3-difluorophenyl)pyrimidine-2-carboxamide] the IC50 was 15.2 nM. Work on `CN1C(=O)[C@@H](NC(=O)c2ncc(Cl)c(-c3cccc4[nH]ncc34)n2)COc2cc(Cl)cnc21` [Example 114, (S)-5-chloro-N-(8-chloro-5-methyl-4-oxo-2,3,4,5-tetrahydropyrido[3,2-b]-[1,4]oxazepin-3-yl)-4-(1H-indazol-4-yl)pyrimidine-2-carboxamide] yielded an IC50 of 63.1 nM. Compound `COCCOc1ccc2c(c1)N(C)C(=O)[C@@H](NC(=O)c1ncc(Cl)c(-c3ccc(F)cc3F)n1)CO2` [Example 146, (S)-5-chloro-4-(2,4-difluorophenyl)-N-(7-(2-methoxyethoxy)-5-methyl-4-oxo-2,3,4,5-tetrahydrobenzo[b]-[1,4]oxazepin-3-yl)pyrimidine-2-carboxamide] has an IC50 of 19.4 nM. For `Cc1ccc(-c2nc(C(=O)N[C@H]3COc4cc(F)cnc4N(C)C3=O)ncc2Cl)cc1F` [Example 78, (S)-5-chloro-4-(3-fluoro-4-methylphenyl)-N-(8-fluoro-5-methyl-4-oxo-2,3,4,5-tetrahydropyrido[3,2-b]-[1,4]oxazepin-3-yl)pyrimidine-2-carboxamide], the IC50 was 8.3 nM. For `Cc1cnc(C(=O)N[C@H]2COc3cc(F)cnc3N(C)C2=O)nc1-c1ccccc1F` [Example 88, (S)-N-(8-fluoro-5-methyl-4-oxo-2,3,4,5-tetrahydro-pyrido[3,2-b][1,4]oxazepin-3-yl)-4-(2-fluorophenyl)-5-methylpyrimidine-2-carboxamide], the IC50 was 13.7 nM. With `Cc1cnc(C(=O)N[C@H]2COc3cc(C#N)ccc3N(C)C2=O)nc1C12CCC(CC1)CC2` [Example 133, (S)-4-(bicyclo[2.2.2]octan-1-yl)-N-(8-cyano-5-methyl-4-oxo-2,3,4,5-tetrahydrobenzo[b]-[1,4]oxazepin-3-yl)-5-methylpyrimidine-2-carboxamide] the IC50 was 160 nM. Work on `Cc1ccc(-c2nc(C(=O)N[C@H]3COc4cc(F)cnc4N(C)C3=O)ncc2Cl)c(F)c1` [Example 77, (S)-5-chloro-4-(2-fluoro-4-methylphenyl)-N-(8-fluoro-5-methyl-4-oxo-2,3,4,5-tetrahydropyrido[3,2-b]-[1,4]oxazepin-3-yl)pyrimidine-2-carboxamide] yielded an IC50 of 9.14 nM. `Cc1cnc(C(=O)N[C@H]2COc3cc(Cl)cnc3N(C)C2=O)nc1-c1ccccc1F` [Example 116, (S)-N-(8-chloro-5-methyl-4-oxo-2,3,4,5-tetrahydro-pyrido[3,2-b][1,4]oxazepin-3-yl)-4-(2-fluorophenyl)-5-methylpyrimidine-2-carboxamide] gave an IC50 of 8.42 nM. With `Cc1cnc(C(=O)N[C@H]2COc3cccnc3N(C)C2=O)nc1-c1ccc(F)c(F)c1` [Example 21, (S)-4-(3,4-difluorophenyl)-5-methyl-N-(5-methyl-4-oxo-2,3,4,5-tetrahydropyrido[3,2-b][1,4]oxazepin-3-yl)pyrimidine-2-carboxamide] the IC50 was 14.8 nM. Compound `CN1C(=O)[C@@H](NC(=O)c2ncc(Cl)c(-c3ccc(Cl)cc3)n2)COc2cc(F)cnc21` [Example 82, (S)-5-chloro-4-(4-chlorophenyl)-N-(8-fluoro-5-methyl-4-oxo-2,3,4,5-tetrahydropyrido[3,2-b]-[1,4]oxazepin-3-yl)pyrimidine-2-carboxamide] has an IC50 of 13.6 nM. `Cc1cnc(C(=O)N[C@H]2COc3cc(C#N)ccc3N(C)C2=O)nc1C1CCOCC1` [Example 134, (S)-N-(8-cyano-5-methyl-4-oxo-2,3,4,5-tetrahydrobenzo[b]-[1,4]oxazepin-3-yl)-5-methyl-4-(tetrahydro-2H-pyran-4-yl)-pyrimidine-2-carboxamide] gave an IC50 of 246 nM. Compound `Cc1cnc(C(=O)N[C@@H]2C(=O)N(C)c3ncccc3O[C@@H]2C)nc1-c1ccccc1` [Example 16, N-((2R,3S)-2,5-dimethyl-4-oxo-2,3,4,5-tetrahydropyrido[3,2-b][1,4]oxazepin-3-yl)-5-methyl-4-phenylpyrimidine-2-carboxamide] has an IC50 of 36.1 nM. Work on `Cc1ccc(C(=O)N[C@H]2COc3cc(C#N)ccc3N(C)C2=O)nc1-c1ccccc1` [Example 40, (S)-N-(8-cyano-5-methyl-4-oxo-2,3,4,5-tetrahydro-benzo[b][1,4]oxazepin-3-yl)-5-methyl-6-phenylpicolinamide] yielded an IC50 of 1570 nM. `Cc1cc(-c2nc(C(=O)N[C@H]3COc4cc(F)cnc4N(C)C3=O)ncc2Cl)ccc1F` [Example 79, (S)-5-chloro-4-(4-fluoro-3-methylphenyl)-N-(8-fluoro-5-methyl-4-oxo-2,3,4,5-tetrahydropyrido[3,2-b]-[1,4]oxazepin-3-yl)pyrimidine-2-carboxamide] showed an IC50 of 18.9 nM. With `Cc1cnc(C(=O)N[C@H]2COc3cc(Cl)cnc3N(C)C2=O)nc1-c1ccc(F)cn1` [Example 121, (S)-N-(8-chloro-5-methyl-4-oxo-2,3,4,5-tetrahydro-pyrido[3,2-b][1,4]oxazepin-3-yl)-4-(5-fluoropyridin-2-yl)-5-methylpyrimidine-2-carboxamide] the IC50 was 30.2 nM.
